Assay results reported in PubChem BioAssay (NCI).
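Assay format: 96-well plates, 48-hour exposure. Abbreviation: GI50, concentration required for 50% inhibition of growth. TGI: concentration producing complete growth inhibition.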

How the values were obtained:
Assay in all cases: inhibition of tumour cell growth, NCI panel, 48 h; in the data active = GI50 below about 0.43 µM; inactive = the rest
[1] = test system: SW-620 colon
[2] = test system: SNB-19 CNS
[3] = test system: BT-549 breast
[4] = test system: PC-3 prostate
[5] = test system: OVCAR-3 ovarian
[6] = test system: A549 NSCLC
[7] = test system: K-562 leukemia
[8] = test system: SF-539 CNS
[9] = test system: SNB-75 CNS
[10] = test system: RPMI-8226 leukemia
[11] = test system: CCRF-CEM leukemia
[12] = test system: SF-268 CNS
[13] = test system: OVCAR-5 ovarian
[14] = test system: HCC-2998 colon
[15] = test system: HL-60(TB) leukemia
[16] = test system: U251 CNS
[17] = test system: HS 578T breast
[18] = test system: UACC-257 melanoma
[19] = test system: RXF 393 renal
[20] = test system: A498 renal
[21] = test system: KM12 colon
[22] = test system: UO-31 renal
[23] = test system: NCI-H226 lung
[24] = test system: DU-145 prostate
[25] = test system: HOP-92 NSCLC
[26] = test system: HCT-116 colon
[27] = test system: COLO 205 colon
[28] = test system: MDA-MB-435
[29] = test system: CAKI-1 renal
[30] = test system: MCF7 breast
[31] = test system: EKVX NSCLC
[32] = test system: UACC-62 melanoma
[33] = test system: SK-MEL-5 melanoma
[34] = test system: SK-OV-3 ovarian
[35] = test system: MALME-3M melanoma
[36] = test system: ACHN renal
[37] = test system: SF-295 CNS
[38] = test system: NCI-H522 lung
[39] = test system: SN12C renal
[40] = test system: NCI-H23 lung
[41] = test system: OVCAR-8 ovarian
[42] = test system: SK-MEL-28 melanoma
[43] = test system: T-47D breast
[44] = test system: TK-10 renal
[45] = test system: SK-MEL-2 melanoma
[46] = test system: 786-0 renal
[47] = test system: HOP-62 NSCLC
[48] = test system: IGROV1 ovarian
[49] = test system: HCT-15 colon
[50] = test system: NCI/ADR-RES ovarian
[51] = test system: NCI-H460 lung
[52] = test system: M14 melanoma
[53] = test system: HT29 colon
[54] = test system: MDA-MB-231 breast
[55] = test system: OVCAR-4 ovarian
[56] = test system: LOX IMVI melanoma
[57] = test system: MOLT-4 leukemia

COc1cc2c(cc1OC)[C@@H]1C(=O)c3cc4c(cc3[C@@H]1N(CCN(C)C)C2=O)OCO4
13.7 µM: TGI [44]
14.2 µM: TGI [30]
3.2 µM: TGI [38]
5.82 µM: TGI [49]
14.7 µM: TGI [50]
5.09 µM: TGI [40]
2280 nM: TGI [23]
3.67 µM: TGI [6]
935 nM: TGI [33]
11.1 µM: TGI [8]
18.3 µM: TGI [55]
1.96 µM: TGI [5]
11.2 µM: TGI [52]
11.8 µM: TGI [54]
18.7 µM: TGI [1]
> 41.3 µM: TGI [42]
1530 nM: TGI [26]
4.84 µM: TGI [24]
> 100 µM: TGI [11] | TGI [45] | TGI [48]
3.74 µM: TGI [39]
9.77 µM: TGI [14]
> 42.4 µM: TGI [7]
8.87 µM: TGI [25]
> 21.6 µM: TGI [19]
5.02 µM: TGI [46]
> 35.5 µM: TGI [27]
12 µM: TGI [16]
13.3 µM: TGI [4]
10.6 µM: TGI [47]
> 65.2 µM: TGI [34]
3.66 µM: TGI [35]
> 33.1 µM: TGI [18]
> 47.3 µM: TGI [2]
9.66 µM: TGI [41]
2360 nM: TGI [51]
38.5 µM: TGI [17]
31.3 µM: TGI [43]
75.2 nM: TGI [15]
30.7 µM: TGI [9]
1080 nM: TGI [29]
23.5 µM: TGI [28]
544 nM: TGI [32]
452 nM: TGI [36]
37.1 µM: TGI [37]
9.43 µM: TGI [20]
inactive: GI50 [2] 1.73 µM | GI50 [3] 0.838 µM | GI50 [9] 11.1 µM | GI50 [13] 1100 nM | GI50 [14] 609 nM | GI50 [17] 11.1 µM | GI50 [18] 0.784 µM | GI50 [19] 1260 nM | GI50 [20] 2780 nM | GI50 [27] 663 nM | GI50 [28] 787 nM | GI50 [31] 1260 nM | GI50 [34] 4.2 µM | GI50 [41] 661 nM | GI50 [42] 2190 nM | GI50 [43] 0.923 µM | GI50 [44] 1.53 µM | GI50 [45] 11.1 µM | GI50 [48] 445 nM | GI50 [54] 1.06 µM | GI50 [55] 768 nM
22.9 µM: TGI [3]
2170 nM: TGI [21]
21.5 µM: TGI [31]
18.1 µM: TGI [12]
active: GI50 [1] 36.9 nM | GI50 [4] 316 nM | GI50 [5] 349 nM | GI50 [6] 171 nM | GI50 [7] 270 nM | GI50 [8] 66.9 nM | GI50 [10] 28.9 nM | GI50 [12] 0.056 µM | GI50 [15] 23.7 nM | GI50 [16] 42.7 nM | GI50 [21] 355 nM | GI50 [22] 85.5 nM | GI50 [23] 0.21 µM | GI50 [24] 30 nM | GI50 [25] 0.208 µM | GI50 [26] 116 nM | GI50 [30] < 0.0366 µM | GI50 [32] < 14.6 nM | GI50 [33] 144 nM | GI50 [35] 0.188 µM | GI50 [36] 0.0179 µM | GI50 [37] 19.4 nM | GI50 [38] 61.1 nM | GI50 [39] 0.0444 µM | GI50 [40] 162 nM | GI50 [46] < 0.0203 µM | GI50 [47] 0.0355 µM | GI50 [49] 368 nM | GI50 [50] 337 nM | GI50 [51] < 23.4 nM | GI50 [52] 81.4 nM | GI50 [53] 104 nM
15.5 µM: TGI [13]
349 nM: TGI [10]

COc1ccc(C(=O)/C=C/c2c(OC)cc(OC)cc2OC)c(OC)c1
active: GI50 [28] 275 nM
inactive: GI50 [1] 911 nM | GI50 [2] 8.37 µM | GI50 [3] 83.8 µM | GI50 [4] 4600 nM | GI50 [5] 1460 nM | GI50 [6] 5360 nM | GI50 [7] 853 nM | GI50 [8] 2700 nM | GI50 [9] 3.26 µM | GI50 [10] 5800 nM | GI50 [12] 7.33 µM | GI50 [13] > 100000 nM | GI50 [14] 2510 nM | GI50 [15] 3640 nM | GI50 [16] 3950 nM | GI50 [17] 5.23 µM | GI50 [56] 3.7 µM | GI50 [18] 36.6 µM | GI50 [20] 2230 nM | GI50 [21] 1210 nM | GI50 [22] > 100000 nM | GI50 [23] 21.3 µM | GI50 [24] 3210 nM | GI50 [25] 16.6 µM | GI50 [26] 3310 nM | GI50 [27] 3380 nM | GI50 [29] 1440 nM | GI50 [30] 3.85 µM | GI50 [31] 4200 nM | GI50 [32] 1320 nM | GI50 [33] 1510 nM | GI50 [34] 27.9 µM | GI50 [35] 7.44 µM | GI50 [36] 21.5 µM | GI50 [57] > 100 µM | GI50 [37] 987 nM | GI50 [38] 2470 nM | GI50 [39] 7.24 µM | GI50 [40] 3090 nM | GI50 [41] 4910 nM | GI50 [42] > 100000 nM | GI50 [43] 16.8 µM | GI50 [44] 36.6 µM | GI50 [45] 5.52 µM | GI50 [46] 15.4 µM | GI50 [47] 11.8 µM | GI50 [49] 2420 nM | GI50 [50] 780 nM | GI50 [51] 2770 nM | GI50 [52] 2590 nM | GI50 [53] 881 nM | GI50 [54] 5.76 µM | GI50 [55] > 100000 nM
95.2 µM: TGI [25]
> 100 µM: TGI [1] | TGI [2] | TGI [3] | TGI [4] | TGI [6] | TGI [7] | TGI [8] | TGI [9] | TGI [12] | TGI [13] | TGI [14] | TGI [16] | TGI [17] | TGI [56] | TGI [18] | TGI [22] | TGI [24] | TGI [27] | TGI [30] | TGI [31] | TGI [34] | TGI [35] | TGI [57] | TGI [38] | TGI [39] | TGI [40] | TGI [41] | TGI [42] | TGI [43] | TGI [44] | TGI [45] | TGI [46] | TGI [47] | TGI [49] | TGI [50] | TGI [52] | TGI [53] | TGI [54] | TGI [55]
8.87 µM: TGI [20]
5.31 µM: TGI [37]
8.37 µM: TGI [5]
0.947 µM: TGI [28]
> 100000 nM: TGI [10] | TGI [15] | TGI [21] | TGI [23] | TGI [26] | TGI [29] | TGI [32] | TGI [33] | TGI [36] | TGI [51]
